Molecules are shown by their SMILES.

Experimental findings from patent US20250326771A1, “PIPERAZINE DERIVATIVES USEFUL IN HIV THERAPY” (VIIV HEALTHCARE COMPANY, priority 2022, published 2025) are described below.

One test concerns the target XIAP-BIR3 (Homo sapiens (Human), UniProt P98170). The experiment in a line: BIR binding assay (FRET competition), XIAP BIR3. As to conditions: for XIAP BIR3 vs BIR2 separation window: fold separation (FS) for XIAP. In short, it runs like this: (§1)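 Compounds tested as 15-point, 3-fold series displacing 200 nM AlexaFluor647-labelled SMAC peptide from His-tagged BIR domain (cIAP1-BIR3 50 nM; cIAP1-BIR2 and cIAP2-BIR2 325 nM; XIAP-BIR3 100 nM), pH 7.4, 60 min. Eu-W1024 (2 nM) added 30 min; emission ratio fitted for IC50.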

For another test, the target named is cIAP2-BIR2 (Homo sapiens (Human), UniProt Q13489). The experiment in a line: BIR binding assay (FRET competition), cIAP2 BIR2. In short, it runs like this: as §1
cIAP2-BIR2, sequence (Q13489 158-242): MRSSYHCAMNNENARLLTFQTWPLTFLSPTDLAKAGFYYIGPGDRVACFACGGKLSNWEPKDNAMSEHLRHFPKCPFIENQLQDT
For a further test, the target named is cIAP2-BIR3 (Homo sapiens (Human), UniProt Q13489). The experiment in a line: BIR binding assay (FRET competition), cIAP2 BIR3. As to conditions: for cIAP2 BIR3 vs BIR2 separation window: fold separation (FS) for cIAP2.
cIAP2-BIR3, sequence (Q13489 238-349): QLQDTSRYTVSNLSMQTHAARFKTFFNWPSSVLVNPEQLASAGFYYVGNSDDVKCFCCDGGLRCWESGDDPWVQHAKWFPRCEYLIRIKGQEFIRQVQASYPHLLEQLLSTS
Test [1] deals with Jurkat HIV-luciferase clones. In words: Jurkat latency reversal assay. The format is cell-based. As to conditions: Homo sapiens, 48 h; Jurkat latency reversal assay potency; read-out: Jurkat pEC50 (converted). An outline of the steps: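 Three pooled Jurkat reporter clones, each with one or two integrated HIV-luciferase proviruses, 5,000 cells/well; duplicate 14-point titrations starting at 10 μM; 48 h, 37° C, then Steady-Glo luminescence; four-parameter logistic analysis yields EC50 and percent maximal activation against DMSO vehicle.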

For a further test, the target named is XIAP-BIR2 (Homo sapiens (Human), UniProt P98170). In words: BIR binding assay (FRET competition), XIAP BIR2. As to conditions: FRET competition binding; read-out: XIAP BIR2 (pIC50) (converted). An outline of the steps: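 Competitive TR-FRET used His-tagged XIAP-BIR2 (200 nM) and 200 nM AlexaFluor647-labelled AVPIAQKSE SMAC peptide in HEPES buffer pH 7.4 with CHAPS, glycerol and DTT, incubated 60 min before 30 min with 2 nM Eu-W1024. The 615/665 nm ratio from a 15-point, 3-fold series was fit with a four-parameter model for IC50/pIC50.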
XIAP-BIR2, sequence (P98170 124-240): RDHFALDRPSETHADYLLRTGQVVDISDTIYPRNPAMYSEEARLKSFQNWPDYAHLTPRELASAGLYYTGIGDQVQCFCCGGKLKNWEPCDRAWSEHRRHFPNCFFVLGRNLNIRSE

The target in a further test is cIAP1-BIR3 (Homo sapiens (Human), UniProt Q13490). The experiment in a line: BIR binding assay (FRET competition), cIAP1 BIR3. As to conditions: for cIAP1 BIR3 vs BIR2 separation window: fold separation (FS) for cIAP1. An outline of the steps:
as §1

Another test deals with cIAP1-BIR2 (Homo sapiens (Human), UniProt Q13490). The experiment in a line: BIR binding assay (FRET competition), cIAP1 BIR2. In short, it runs like this:
as §1

cIAP1-BIR3, sequence (Q13490 253-363): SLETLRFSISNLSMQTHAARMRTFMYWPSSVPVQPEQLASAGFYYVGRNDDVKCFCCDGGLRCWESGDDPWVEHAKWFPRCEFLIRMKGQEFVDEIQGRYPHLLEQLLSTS
cIAP1-BIR2, sequence (Q13490 173-257): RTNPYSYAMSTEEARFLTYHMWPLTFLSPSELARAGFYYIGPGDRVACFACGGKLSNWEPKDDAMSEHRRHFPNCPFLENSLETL
XIAP-BIR3, sequence (P98170 241-356): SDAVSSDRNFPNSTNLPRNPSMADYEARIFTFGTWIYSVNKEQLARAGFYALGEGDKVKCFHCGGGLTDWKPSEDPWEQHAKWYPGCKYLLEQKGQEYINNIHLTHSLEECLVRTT

With `C[C@@H]1CN(CC(=O)N2CC(C)(C)c3[nH]c(=O)c(Cc4ccc(F)cc4)cc32)[C@@H](CN2CCO[C@H](COc3cccc(OC[C@@H]4CN(C[C@H]5CN[C@H](C)CN5CC(=O)N5CC(C)(C)c6[nH]c(=O)c(Cc7ccc(F)cc7)cc65)CCO4)c3Br)C2)CN1` [Example 87, 1,1′-(2,2′-((3R,3′R,6R,6′R)-(((2S,2'S)-(((2-bromo-1,3-phenylene)bis(oxy))bis(methylene))bis(morpholine-2,4-diyl))bis(methylene))bis(3-methylpiperazine-6,1-diyl))bis(acetyl))bis(6-(4-fluorobenzyl)-3,3-dimethyl-1,2,3,4-tetrahydro-5H-pyrrolo[3,2-b]pyridin-5-one)], the IC50 on XIAP-BIR3 was 7.94 to 15.8 nM; at cIAP2-BIR2, 3160 to 10000 nM; at cIAP2-BIR3 it was 7.94 to 15.8 nM; at XIAP-BIR2, 10000 to 51300 nM; on cIAP1-BIR3, 7.94 to 15.8 nM; on cIAP1-BIR2, 1000 to 3160 nM. The “XIAP BIR3 vs BIR2 separation window” value on XIAP-BIR3 is “++++ (FS>10,000)”. Further, on cIAP2-BIR3, the “cIAP2 BIR3 vs BIR2 separation window” value was “+++ (10,000>FS>1,000)”. In test [1], the EC50 was 0.49 to 12.6 nM. Besides, the “cIAP1 BIR3 vs BIR2 separation window” value at cIAP1-BIR3 was “+++ (10,000>FS>1,000)”.
For `C[C@@H]1CN(CC(=O)N2CC(C)(C)c3[nH]c(=O)c(Cc4ccc(F)cc4)cc32)[C@@H](CN2CCO[C@H](COc3cccc(OC[C@@H]4CN(C[C@H]5CN[C@H](C)CN5CC(=O)N5CC(C)(C)c6[nH]c(=O)c(Cc7ccc(F)cc7)cc65)CCO4)c3Cl)C2)CN1` [Example 88, 1,1′-(2,2′-((3R,3′R,6R,6′R)-(((2S,2'S)-(((2-chloro-1,3-phenylene)bis(oxy))bis(methylene))bis(morpholine-2,4-diyl))bis(methylene))bis(3-methylpiperazine-6,1-diyl))bis(acetyl))bis(6-(4-fluorobenzyl)-3,3-dimethyl-1,2,3,4-tetrahydro-5H-pyrrolo[3,2-b]pyridin-5-one)], the IC50 at XIAP-BIR3 is 7.94 to 15.8 nM; at cIAP2-BIR2, 1000 to 3160 nM; at cIAP2-BIR3, 7.94 to 15.8 nM; on XIAP-BIR2, 10000 to 51300 nM; at cIAP1-BIR3, 7.94 to 15.8 nM; on cIAP1-BIR2, 1000 to 3160 nM. Besides, the “XIAP BIR3 vs BIR2 separation window” value at XIAP-BIR3 is “++++ (FS>10,000)”. Moreover, the “cIAP2 BIR3 vs BIR2 separation window” value at cIAP2-BIR3 was “+++ (10,000>FS>1,000)”. The EC50 in test [1] was 0.49 to 12.6 nM. For the same compound, at cIAP1-BIR3, the “cIAP1 BIR3 vs BIR2 separation window” value is recorded as “+++ (10,000>FS>1,000)”.
Regarding `C[C@@H]1CN(CC(=O)N2CC(C)(C)c3[nH]c(=O)c(Cc4ccc(F)cc4)cc32)[C@@H](CN2CCO[C@H](C(=O)N[C@H]3CC[C@H](NC(=O)[C@@H]4CN(C[C@H]5CN[C@H](C)CN5CC(=O)N5CC(C)(C)c6[nH]c(=O)c(Cc7ccc(F)cc7)cc65)CCO4)CC3)C2)CN1` [Example 92, (2S,2'S)-N,N′-((1S,4S)-cyclohexane-1,4-diyl)bis(4-(((2R,5R)-1-(2-(6-(4-fluorobenzyl)-3,3-dimethyl-5-oxo-2,3,4,5-tetrahydro-1H-pyrrolo[3,2-b]pyridin-1-yl)-2-oxoethyl)-5-methylpiperazin-2-yl)methyl)morpholine-2-carboxamide)], the IC50 on XIAP-BIR3 is 7.94 to 15.8 nM; at cIAP2-BIR2, 1000 to 3160 nM; at cIAP2-BIR3 it was 7.94 to 15.8 nM; on XIAP-BIR2, 10000 to 51300 nM; at cIAP1-BIR3, 1.38 to 7.94 nM; at cIAP1-BIR2, 1000 to 3160 nM. Also, at XIAP-BIR3, the “XIAP BIR3 vs BIR2 separation window” value is “++++ (FS>10,000)”. On cIAP2-BIR3, the “cIAP2 BIR3 vs BIR2 separation window” value is “+++ (10,000>FS>1,000)”. Further, the EC50 in test [1] was 12.6 to 63.1 nM. The “cIAP1 BIR3 vs BIR2 separation window” value on cIAP1-BIR3 is on record as “+++ (10,000>FS>1,000)”.
`C[C@@H]1CN(CC(=O)N2CC(C)(C)c3[nH]c(=O)c(Cc4ccc(F)cc4)cc32)[C@@H](CN2CCO[C@H](C(=O)NCC#CC#CCNC(=O)[C@@H]3CN(C[C@H]4CN[C@H](C)CN4CC(=O)N4CC(C)(C)c5[nH]c(=O)c(Cc6ccc(F)cc6)cc54)CCO3)C2)CN1` [Example 93, (2S,2'S)-N,N′-(hexa-2,4-diyne-1,6-diyl)bis(4-(((2R,5R)-1-(2-(6-(4-fluorobenzyl)-3,3-dimethyl-5-oxo-2,3,4,5-tetrahydro-1H-pyrrolo[3,2-b]pyridin-1-yl)-2-oxoethyl)-5-methylpiperazin-2-yl)methyl)morpholine-2-carboxamide)]: the IC50 at XIAP-BIR3 was 31.6 to 501 nM; on cIAP2-BIR2 it was 1000 to 3160 nM; at cIAP2-BIR3, 7.94 to 15.8 nM; on XIAP-BIR2, 10000 to 51300 nM; on cIAP1-BIR3, 7.94 to 15.8 nM; at cIAP1-BIR2, 22.4 to 1000 nM. Besides, at XIAP-BIR3, the “XIAP BIR3 vs BIR2 separation window” value was “++++ (FS>10,000)”. Further, at cIAP2-BIR3, the “cIAP2 BIR3 vs BIR2 separation window” value is “+++ (10,000>FS>1,000)”. Further, the EC50 in test [1] is 12.6 to 63.1 nM. In addition, at cIAP1-BIR3, the “cIAP1 BIR3 vs BIR2 separation window” value is reported as “++ (1,000>FS>100)”.
Take `C[C@@H]1CN(CC(=O)N2CC(C)(C)c3[nH]c(=O)c(Cc4ccc(F)cc4)cc32)[C@@H](CN2CCC(CN(C)C(=O)c3cccc(C(=O)N(C)CC4CCN(C[C@H]5CN[C@H](C)CN5CC(=O)N5CC(C)(C)c6[nH]c(=O)c(Cc7ccc(F)cc7)cc65)CC4)c3)CC2)CN1` [Example 95, N^1,N^3-bis((1-(((2R,5R)-1-(2-(6-(4-fluorobenzyl)-3,3-dimethyl-5-oxo-2,3,4,5-tetrahydro-1H-pyrrolo[3,2-b]pyridin-1-yl)-2-oxoethyl)-5-methylpiperazin-2-yl)methyl)piperidin-4-yl)methyl)-N^1,N^3-dimethylisophthalamide]: the IC50 at XIAP-BIR3 is 7.94 to 15.8 nM; at cIAP2-BIR2 it was 1000 to 3160 nM; at cIAP2-BIR3, 1.38 to 7.94 nM; on XIAP-BIR2, 10000 to 51300 nM; at cIAP1-BIR3 it was 31.6 to 501 nM; at cIAP1-BIR2, 1000 to 3160 nM. Moreover, the “XIAP BIR3 vs BIR2 separation window” value on XIAP-BIR3 was “++++ (FS>10,000)”. At cIAP2-BIR3, the “cIAP2 BIR3 vs BIR2 separation window” value was “+++ (10,000>FS>1,000)”. In addition, the EC50 in test [1] was 63.1 to 316 nM. Besides, the “cIAP1 BIR3 vs BIR2 separation window” value at cIAP1-BIR3 is “++ (1,000>FS>100)”.
With `C[C@@H]1CN(CC(=O)N2CC(C)(C)c3[nH]c(=O)c(Cc4ccc(F)cc4)cc32)[C@@H](CN2CCC(CN(C)C(=O)c3ccc(C(=O)N(C)CC4CCN(C[C@H]5CN[C@H](C)CN5CC(=O)N5CC(C)(C)c6[nH]c(=O)c(Cc7ccc(F)cc7)cc65)CC4)cc3)CC2)CN1` [Example 96, N^1,N^4-bis((1-(((2R,5R)-1-(2-(6-(4-fluorobenzyl)-3,3-dimethyl-5-oxo-2,3,4,5-tetrahydro-1H-pyrrolo[3,2-b]pyridin-1-yl)-2-oxoethyl)-5-methylpiperazin-2-yl)methyl)piperidin-4-yl)methyl)-N^1,N^4-dimethylterephthalamide], the IC50 at XIAP-BIR3 was 7.94 to 15.8 nM; on cIAP2-BIR2, 1000 to 3160 nM; at cIAP2-BIR3, 7.94 to 15.8 nM; at XIAP-BIR2 it was 10000 to 51300 nM; on cIAP1-BIR3, 1.38 to 7.94 nM; on cIAP1-BIR2, 1000 to 3160 nM. Further, the “XIAP BIR3 vs BIR2 separation window” value at XIAP-BIR3 is “++++ (FS>10,000)”. In addition, on cIAP2-BIR3, the “cIAP2 BIR3 vs BIR2 separation window” value is listed as “+++ (10,000>FS>1,000)”. Moreover, the EC50 in test [1] is 63.1 to 316 nM. Moreover, the “cIAP1 BIR3 vs BIR2 separation window” value at cIAP1-BIR3 was “+++ (10,000>FS>1,000)”.
Turning to `C[C@@H]1CN(CC(=O)N2CC(C)(C)c3[nH]c(=O)c(Cc4ccc(F)cc4)cc32)[C@@H](CN2CCC(CN(C)C(=O)Cc3ccc(C(=O)N(C)CC4CCN(C[C@H]5CN[C@H](C)CN5CC(=O)N5CC(C)(C)c6[nH]c(=O)c(Cc7ccc(F)cc7)cc65)CC4)cc3)CC2)CN1` [Example 97, N-((1-(((2R,5R)-1-(2-(6-(4-fluorobenzyl)-3,3-dimethyl-5-oxo-2,3,4,5-tetrahydro-1H-pyrrolo[3,2-b]pyridin-1-yl)-2-oxoethyl)-5-methylpiperazin-2-yl)methyl)piperidin-4-yl)methyl)-4-(2-(((1-(((2R,5R)-1-(2-(6-(4-fluorobenzyl)-3,3-dimethyl-5-oxo-2,3,4,5-tetrahydro-1H-pyrrolo[3,2-b]pyridin-1-yl)-2-oxoethyl)-5-methylpiperazin-2-yl)methyl)piperidin-4-yl)methyl)(methyl)amino)-2-oxoethyl)-N-methylbenzamide], the IC50 was 7.94 to 15.8 nM on XIAP-BIR3; 3160 to 10000 nM on cIAP2-BIR2; 1.38 to 7.94 nM on cIAP2-BIR3; 10000 to 51300 nM at XIAP-BIR2; 1.38 to 7.94 nM on cIAP1-BIR3; 1000 to 3160 nM at cIAP1-BIR2. Besides, on XIAP-BIR3, the “XIAP BIR3 vs BIR2 separation window” value is “++++ (FS>10,000)”. The “cIAP2 BIR3 vs BIR2 separation window” value on cIAP2-BIR3 was “+++ (10,000>FS>1,000)”. Also, the EC50 in test [1] was 63.1 to 316 nM. Also, the “cIAP1 BIR3 vs BIR2 separation window” value at cIAP1-BIR3 is on record as “++++ (FS>10,000)”.
